In patent publication US9862684B2, “Modulation of K2P channels” (The Regents of the University of California, priority 2013, dated 2018):
Changes are numbered by the printed parent chain. Read-outs that look alike come from different tables or passages of the source.

Columns and labels:
K2P2.1 (TREK-1) = target: T1, K2P2.1 (TREK-1) (Mus musculus, UniProt P97438); assay: Two-electrode voltage clamp of Xenopus oocytes expressing K2P2.1 (TREK-1); assay type: cell-based, Murine
T1 construct: expressed in transfected cells; host or cells: Xenopus oocytes (cRNA injection, pGEMHE/pMO)
T1 sequence (P97438 1-411 isoform P97438-2): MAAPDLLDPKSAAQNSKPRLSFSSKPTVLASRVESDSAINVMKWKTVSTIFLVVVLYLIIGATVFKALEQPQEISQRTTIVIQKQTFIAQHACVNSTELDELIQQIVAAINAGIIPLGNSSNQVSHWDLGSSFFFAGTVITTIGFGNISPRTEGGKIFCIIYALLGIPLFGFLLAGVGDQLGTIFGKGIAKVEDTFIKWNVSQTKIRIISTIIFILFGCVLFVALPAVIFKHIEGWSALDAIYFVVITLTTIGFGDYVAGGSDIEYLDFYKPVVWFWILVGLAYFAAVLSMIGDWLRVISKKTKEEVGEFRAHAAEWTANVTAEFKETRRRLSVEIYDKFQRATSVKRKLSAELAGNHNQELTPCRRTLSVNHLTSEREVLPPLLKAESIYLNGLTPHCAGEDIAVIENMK
Method: Two-electrode voltage clamp recordings were performed from defolliculated stage V-VI Xenopus oocytes 24-48 hours after injection with 0.015-6.0 ng cRNA, using microelectrodes (0.3-3.0 MΩ) filled with 3M KCl. […] Recording solutions (mM): 2K (96 NaCl, 2 KCl, 1.8 CaCl2, 2 MgCl2), 90K (90 KCl, 8 NaCl, 1.8 CaCl2, 2 MgCl2), were buffered 5 mM HEPES pH 7.4. For K2P recordings, currents we elicited by a 1 second long ramp from −150 to +50 mV from a holding potential of −80 mV (2K), or −100 to +50 mV from a holding potential of 0 mV (90K). For KCNQ2 recordings, currents were elicited by a step protocol from −120 to 60 mV, in 20 mV increments, from a holding potential of −80 mV. […] Currents were elicited by a 1 second long ramp from −150 to +50 mV from a holding potential of −80 mV.

K2P2.1 (TREK-1) G137I = target: T2, K2P2.1 (TREK-1) G137I (Mus musculus, UniProt P97438, G152I); assay: Two-electrode voltage clamp, Xenopus oocytes, C-type gate mutant G137I; assay type: cell-based, Murine
T2 construct: expressed in transfected cells; host or cells: Xenopus oocytes
T2 sequence (P97438 1-411 isoform P97438-2 G137I): T1 sequence (P97438 1-411 isoform P97438-2) with G137I
Method: I-V curves were measured by two-electrode voltage clamp of Xenopus oocytes in b, 90 mM [K^+]o. or c-e, 2 mM [K^+]o. […] Data (were measured at 20 mV (90 mM [K^+]o) or 0 mV (2 mM [K^+]o), normalized to basal channel activity, and fitted to the Hill equation. Error bars indicate s.e., n≧6, N≧2.
Murine K2P channels were cloned into pGEMHE/pMO {Bagriantsev, 2011}, IRES-GFP (Invitrogen), or pYES2-MET25 (high copy 2μ, URA3) {Minor, 1999} for expression in oocytes, HEK-293T cells, and yeast, respectively, using standard molecular biology procedures, and verified by DNA sequencing.
Two-electrode voltage clamp recordings were performed from defolliculated stage V-VI Xenopus oocytes 24-48 hours after injection with 0.015-6.0 ng cRNA, using microelectrodes (0.3-3.0 MΩ) filled with 3M KCl. Data was acquired using the GeneClamp 500B (MDS Analytical Technologies) amplifier controlled by the pClamp software (Molecular Devices), and digitized at 1 kHz using Digidata 1332A (MDS Analytical Technologies). Recording solutions (mM): 2K (96 NaCl, 2 KCl, 1.8 CaCl2, 2 MgCl2), 90K (90 KCl, 8 NaCl, 1.8 CaCl2, 2 MgCl2), were buffered 5 mM HEPES pH 7.4. For K2P recordings, currents we elicited by a 1 second long ramp from −150 to +50 mV from a holding potential of −80 mV (2K), or −100 to +50 mV from a holding potential of 0 mV (90K). […]

CC1(C)c2cc(Cl)ccc2N(CCc2nnn[nH]2)c2ccc(Cl)cc21 [ML67-33, 2,7-dichloro-9,9-dimethyl-10-[2-(1H-tetrazol-5-yl)ethyl]acridine]
EC50 (K2P2.1 (TREK-1); Xenopus oocytes, 2 mM [K+]o pH 7.4, data at 0 mV, normalized to basal activity, Hill fit, read-out: EC50): 36.3 ± 1.04 µM | Emax (fold) at 100 μM (K2P2.1 (TREK-1); Xenopus oocytes, at 100 μM (FIG. 4, 7 legends), marked ** in Table 1, footnote not given): 11.1±0.4 fold | Emax (fold) (K2P2.1 (TREK-1); Xenopus oocytes, fold over basal current, no concentration stated): 11.1 ± 0.4 fold | response of K2P2.1 (TREK-1) to ML67-33 with C-type gate stabilized (in words) (K2P2.1 (TREK-1); high extracellular potassium, 90 mM [K+]o): reduced the response | EC50 (K2P2.1 (TREK-1); spans oocytes and HEK cells, read-out: concentration at which the compound acts (EC50 range)): 9.7 to 36.3 µM | response to ML67-33 activation (in words) (K2P2.1 (TREK-1) G137I): completely resistant | Emax (fold) at 150 μM (K2P2.1 (TREK-1) G137I; at 150 μM): 0.9 ± 0.1 at 150 μM fold
